Assay results from US20260256792A1, “TREATMENT OF CHRONIC SPONTANEOUS URTICARIA BY ADMINISTERING (R)-2-[3-[4-AMINO-3-(2-FLUORO-4-PHENOXY-PHENYL)PYRAZOLO[3,4-D]PYRIMIDIN-1-YL]PIPERIDINE-1-CARBONYL]-4-METHYL-4-[4-(OXETAN-3-YL)PIPERAZIN-1-YL]PENT-2-ENENITRILE” (priority 2023, published 2026).

Test system: moderate-to-severe chronic spontaneous urticaria (CSU)
Assay: Phase 2 CSU study: urticaria activity score over 7 days (UAS7)
Assay type: in vivo, human
Parameters: key to UAS7 Median / UAS7 Change from baseline Median / UAS7 change from baseline, Q1 / UAS7 change from baseline, Q3 / UAS7 change from baseline, Max / UAS7 Change from baseline LS Mean (SE): UAS7 points; daily UAS score ranges 0–6 points/day, over 7 days
From the text: The study comprises a 12 week, randomized, double-blind, placebo-controlled, multi-center, dose-ranging efficacy and safety phase, followed by a 40 week open label extension (OLE) phase (see FIG. 1). The study consists of three phases and an optional OLE phase. […] Clinically, CSU is characterized by the spontaneous and recurrent appearance of pruritic hives. The proposed primary endpoints were the UAS7 at Week 12 in EU and EU reference countries and the ISS7 in the US. Regardless of where a participant was from, all assessments were the same. The UAS7 score is a composite score containing both the HSS7 and the ISS7. This allowed a global assessment of the two key components of urticaria: hives and itch. […] The UAS is a validated PRO measure. […] The daily UAS scores range from 0 to 6 point/day. […] Patients were to complete the UAS using the e-diary. […] The following secondary endpoints were to be analyzed using the same approach as for the primary endpoint: • Change from baseline in UAS7 at Week 4 • Change from baseline in UAS7 at Week 12 (for US and US reference countries) • Change from baseline in ISS7 at Week 12 (except US and US reference countries) • Change from baseline in HSS7 at Week 12 The following responder secondary endpoints were to be analyzed using the Cochran-Mantel-Haenszel test adjusted by region: • Proportion of participants with UAS7<6 at Week 12 • Proportion of participants with UAS7=0 at Week 12 Participants who received selected prohibited medications and/or rescue medications were to be considered as non-responders for time points after the medication usage. For other participants, all available data including those collected during the off-treatment period were to be used to determine the responder/non-responder status. Missing data were to be considered as non-responders.

[1] = ITT Population, 400 mg TID, Week 1
[2] = ITT Population, 400 mg TID, Week 12
[3] = ITT population, 400 mg BID, Week 1
[4] = ITT population, 400 mg BID, Week 3
[5] = ITT population, 400 mg BID, Week 4
[6] = ITT population, 400 mg BID, Week 5
[7] = ITT population, 400 mg BID, Week 6
[8] = ITT population, 400 mg BID, Week 7
[9] = ITT population, 400 mg BID, Week 8
[10] = ITT population, 400 mg BID, Week 9
[11] = ITT population, 400 mg BID, Week 10
[12] = ITT population, 400 mg BID, Week 11
[13] = ITT population, 400 mg BID, Week 12
[14] = ITT population, 400 mg QPM, Week 1
[15] = ITT population, 400 mg QPM, Week 2
[16] = ITT population, 400 mg QPM, Week 4
[17] = ITT population, 400 mg QPM, Week 6
[18] = ITT population, 400 mg QPM, Week 7
[19] = ITT population, 400 mg QPM, Week 8
[20] = ITT population, 400 mg QPM, Week 9
[21] = ITT population, 400 mg QPM, Week 10
[22] = ITT population, 400 mg QPM, Week 11
[23] = ITT population, 400 mg QPM, Week 12
[24] = ITT population, 400 mg TID, Week 2
[25] = ITT population, 400 mg TID, Week 3
[26] = ITT population, 400 mg TID, Week 4
[27] = ITT population, 400 mg TID, Week 5

## CC(C)(C=C(C#N)C(=O)N1CCC[C@@H](n2nc(-c3ccc(Oc4ccccc4)cc3F)c3c(N)ncnc32)C1)N1CCN(C2COC2)CC1 [rilzabrutinib, (R)-2-[3-[4-amino-3-(2-fluoro-4-phenoxy-phenyl)pyrazolo[3,4-d]pyrimidin-1-yl]piperidine-1-carbonyl]-4-methyl-4-[4-(oxetan-3-yl)piperazin-1-yl]pent-2-enenitrile]
ITT Population, 400 mg QPM, Week 5
  UAS7 Post-baseline Mean (SD): 20.58 (9.05)
[1]
  UAS7 % Change difference for rilzabrutinib vs. placebo LS Mean (95% CI): −29.94%
  UAS7 % Change from baseline LS Mean (SE): −40.18%
  UAS7 Change from baseline LS Mean (SE): −12.72
  UAS7 Post-baseline Mean (SD): 16.95 (10.13)
[2]
  UAS7 % Change difference for rilzabrutinib vs. placebo LS Mean (95% CI): −26.23%
  UAS7 % Change from baseline LS Mean (SE): −59.16%
  UAS7 Change difference for rilzabrutinib vs. placebo LS Mean (95% CI): −6.76
  UAS7 Change from baseline LS Mean (SE): −17.95
[3]
  UAS7 % Change difference for rilzabrutinib vs. placebo LS Mean (95% CI): −23.93%
  UAS7 % Change from baseline LS Mean (SE): −34.18%
  UAS7 Change difference for rilzabrutinib vs. placebo LS Mean (95% CI): −6.18
  UAS7 Change from baseline LS Mean (SE): −10.01
  UAS7 Post-baseline Mean (SD): 19.98 (11.35)
[4]
  UAS7 % Change difference for rilzabrutinib vs. placebo LS Mean (95% CI): −18.34%
  UAS7 % Change from baseline LS Mean (SE): −39.97%
  UAS7 Change difference for rilzabrutinib vs. placebo LS Mean (95% CI): −4.74
  UAS7 Change from baseline LS Mean (SE): −12.33
  UAS7 Post-baseline Mean (SD): 17.63 (12.02)
[5]
  UAS7 % Change difference for rilzabrutinib vs. placebo LS Mean (95% CI): −20.76%
  UAS7 % Change from baseline LS Mean (SE): −44.02%
  UAS7 Change difference for rilzabrutinib vs. placebo LS Mean (95% CI): −5.34
  UAS7 Change from baseline LS Mean (SE): −13.41
  UAS7 Post-baseline Mean (SD): 15.62 (12.20)
[6]
  UAS7 % Change difference for rilzabrutinib vs. placebo LS Mean (95% CI): −10.88%
  UAS7 % Change from baseline LS Mean (SE): −42.67%
  UAS7 Change difference for rilzabrutinib vs. placebo LS Mean (95% CI): −2.61
  UAS7 Change from baseline LS Mean (SE): −12.81
  UAS7 Post-baseline Mean (SD): 16.44 (13.70)
[7]
  UAS7 % Change difference for rilzabrutinib vs. placebo LS Mean (95% CI): −14.76%
  UAS7 % Change from baseline LS Mean (SE): −41.66%
  UAS7 Change difference for rilzabrutinib vs. placebo LS Mean (95% CI): −3.64
  UAS7 Change from baseline LS Mean (SE): −12.78
  UAS7 Post-baseline Mean (SD): 16.51 (12.98)
[8]
  UAS7 % Change difference for rilzabrutinib vs. placebo LS Mean (95% CI): −20.46%
  UAS7 % Change from baseline LS Mean (SE): −47.80%
  UAS7 Change difference for rilzabrutinib vs. placebo LS Mean (95% CI): −5.50
  UAS7 Change from baseline LS Mean (SE): −14.56
  UAS7 Post-baseline Mean (SD): 15.04 (12.35)
[9]
  UAS7 % Change difference for rilzabrutinib vs. placebo LS Mean (95% CI): −21.40%
  UAS7 % Change from baseline LS Mean (SE): −53.24%
  UAS7 Change difference for rilzabrutinib vs. placebo LS Mean (95% CI): −5.61
  UAS7 Change from baseline LS Mean (SE): −15.96
  UAS7 Post-baseline Mean (SD): 13.59 (13.23)
[10]
  UAS7 % Change difference for rilzabrutinib vs. placebo LS Mean (95% CI): −24.16%
  UAS7 % Change from baseline LS Mean (SE): −52.21%
  UAS7 Change difference for rilzabrutinib vs. placebo LS Mean (95% CI): −5.85
  UAS7 Change from baseline LS Mean (SE): −15.45
  UAS7 Post-baseline Mean (SD): 14.13 (14.43)
[11]
  UAS7 % Change difference for rilzabrutinib vs. placebo LS Mean (95% CI): −17.60%
  UAS7 % Change from baseline LS Mean (SE): −51.13%
  UAS7 Change difference for rilzabrutinib vs. placebo LS Mean (95% CI): −4.46
  UAS7 Change from baseline LS Mean (SE): −15.36
  UAS7 Post-baseline Mean (SD): 14.82 (14.24)
[12]
  UAS7 % Change difference for rilzabrutinib vs. placebo LS Mean (95% CI): −19.11%
  UAS7 % Change from baseline LS Mean (SE): −49.87%
  UAS7 Change difference for rilzabrutinib vs. placebo LS Mean (95% CI): −4.55
  UAS7 Change from baseline LS Mean (SE): −14.95
  UAS7 Post-baseline Mean (SD): 14.55 (13.86)
[13]
  UAS7 % Change difference for rilzabrutinib vs. placebo LS Mean (95% CI): −16.41%
  UAS7 % Change from baseline LS Mean (SE): −49.34%
  UAS7 Change difference for rilzabrutinib vs. placebo LS Mean (95% CI): −3.62
  UAS7 Change from baseline LS Mean (SE): −14.82
  UAS7 Post-baseline Mean (SD): 14.70 (14.29)
[14]
  UAS7 % Change difference for rilzabrutinib vs. placebo LS Mean (95% CI): −12.22%
  UAS7 % Change from baseline LS Mean (SE): −22.47%
  UAS7 Change difference for rilzabrutinib vs. placebo LS Mean (95% CI): −3.61
  UAS7 Change from baseline LS Mean (SE): −7.44
  UAS7 Post-baseline Mean (SD): 23.84 (8.66)
[15]
  UAS7 % Change difference for rilzabrutinib vs. placebo LS Mean (95% CI): −6.32%
  UAS7 % Change from baseline LS Mean (SE): −25.19%
  UAS7 Change difference for rilzabrutinib vs. placebo LS Mean (95% CI): −1.80
  UAS7 Change from baseline LS Mean (SE): −8.14
  UAS7 Post-baseline Mean (SD): 23.40 (8.85)
[16]
  UAS7 % Change difference for rilzabrutinib vs. placebo LS Mean (95% CI): −5.97%
  UAS7 % Change from baseline LS Mean (SE): −29.23%
  UAS7 Change difference for rilzabrutinib vs. placebo LS Mean (95% CI): −1.48
  UAS7 Change from baseline LS Mean (SE): −9.55
  UAS7 Post-baseline Mean (SD): 21.82 (8.73)
[17]
  UAS7 % Change difference for rilzabrutinib vs. placebo LS Mean (95% CI): −7.24%
  UAS7 % Change from baseline LS Mean (SE): −34.14%
  UAS7 Change difference for rilzabrutinib vs. placebo LS Mean (95% CI): −1.88
  UAS7 Change from baseline LS Mean (SE): −11.02
  UAS7 Post-baseline Mean (SD): 20.12 (10.28)
[18]
  UAS7 % Change difference for rilzabrutinib vs. placebo LS Mean (95% CI): −7.16%
  UAS7 % Change from baseline LS Mean (SE): −34.50%
  UAS7 Change difference for rilzabrutinib vs. placebo LS Mean (95% CI): −1.89
  UAS7 Change from baseline LS Mean (SE): −10.95
  UAS7 Post-baseline Mean (SD): 20.98 (9.91)
[19]
  UAS7 % Change difference for rilzabrutinib vs. placebo LS Mean (95% CI): −3.38%
  UAS7 % Change from baseline LS Mean (SE): −35.22%
  UAS7 Change difference for rilzabrutinib vs. placebo LS Mean (95% CI): −0.53
  UAS7 Change from baseline LS Mean (SE): −10.88
  UAS7 Post-baseline Mean (SD): 21.01 (10.40)
[20]
  UAS7 % Change difference for rilzabrutinib vs. placebo LS Mean (95% CI): −8.48%
  UAS7 % Change from baseline LS Mean (SE): −36.53%
  UAS7 Change difference for rilzabrutinib vs. placebo LS Mean (95% CI): −1.73
  UAS7 Change from baseline LS Mean (SE): −11.33
  UAS7 Post-baseline Mean (SD): 20.18 (10.10)
[21]
  UAS7 % Change difference for rilzabrutinib vs. placebo LS Mean (95% CI): −3.82%
  UAS7 % Change from baseline LS Mean (SE): −37.35%
  UAS7 Change difference for rilzabrutinib vs. placebo LS Mean (95% CI): −0.76
  UAS7 Change from baseline LS Mean (SE): −11.66
  UAS7 Post-baseline Mean (SD): 20.15 (10.55)
[22]
  UAS7 % Change difference for rilzabrutinib vs. placebo LS Mean (95% CI): −5.62%
  UAS7 % Change from baseline LS Mean (SE): −36.39%
  UAS7 Change difference for rilzabrutinib vs. placebo LS Mean (95% CI): −0.52
  UAS7 Change from baseline LS Mean (SE): −10.92
  UAS7 Post-baseline Mean (SD): 21.08 (11.00)
[23]
  UAS7 % Change difference for rilzabrutinib vs. placebo LS Mean (95% CI): −2.09%
  UAS7 % Change from baseline LS Mean (SE): −35.03%
  UAS7 Change difference for rilzabrutinib vs. placebo LS Mean (95% CI): 0.97
  UAS7 Change from baseline LS Mean (SE): −10.22
  UAS7 Post-baseline Mean (SD): 21.80 (10.94)
[24]
  UAS7 % Change difference for rilzabrutinib vs. placebo LS Mean (95% CI): −29.83%
  UAS7 % Change from baseline LS Mean (SE): −48.69%
  UAS7 Change difference for rilzabrutinib vs. placebo LS Mean (95% CI): −8.72
  UAS7 Change from baseline LS Mean (SE): −15.06
  UAS7 Post-baseline Mean (SD): 14.58 (10.74)
[25]
  UAS7 % Change difference for rilzabrutinib vs. placebo LS Mean (95% CI): −28.32%
  UAS7 % Change from baseline LS Mean (SE): −49.95%
  UAS7 Change difference for rilzabrutinib vs. placebo LS Mean (95% CI): −7.56
  UAS7 Change from baseline LS Mean (SE): −15.15
  UAS7 Post-baseline Mean (SD): 14.42 (9.77)
[26]
  UAS7 % Change difference for rilzabrutinib vs. placebo LS Mean (95% CI): −25.68%
  UAS7 % Change from baseline LS Mean (SE): −48.94%
  UAS7 Change difference for rilzabrutinib vs. placebo LS Mean (95% CI): −6.71
  UAS7 Change from baseline LS Mean (SE): −14.78
  UAS7 Post-baseline Mean (SD): 13.93 (9.77)
[27]
  UAS7 % Change difference for rilzabrutinib vs. placebo LS Mean (95% CI): −22.21%
  UAS7 % Change from baseline LS Mean (SE): −54.01%
  UAS7 Change difference for rilzabrutinib vs. placebo LS Mean (95% CI): −6.47
